Assay results: patent US9939427B2, “Method for evaluating the scent performance of perfumes or perfume mixtures” (Symrise AG, priority 2013, dated 2018)
“Also recorded” adds a separate entry of the source.

Assays:
Format in all cases: cell-based
[1] = biological target: T1, OR4K2 (Homo sapiens, UniProt Q8NGD2); assay: Ca-imaging of OR4K2-transfected HEK293 cells; parameters: key to OR4K2 responded to odorant: ▪: 18 olfactory receptors responded to 32 odorants in related with specific anosmia; conditions: HEK293 cells, individual odorant 200 μM, significant response p<0.05
T1 construct: specific primers, which amplify the complete open reading frame; expressed in transfected cells; host or cells: HEK293
T1 sequence (Q8NGD2 1-314): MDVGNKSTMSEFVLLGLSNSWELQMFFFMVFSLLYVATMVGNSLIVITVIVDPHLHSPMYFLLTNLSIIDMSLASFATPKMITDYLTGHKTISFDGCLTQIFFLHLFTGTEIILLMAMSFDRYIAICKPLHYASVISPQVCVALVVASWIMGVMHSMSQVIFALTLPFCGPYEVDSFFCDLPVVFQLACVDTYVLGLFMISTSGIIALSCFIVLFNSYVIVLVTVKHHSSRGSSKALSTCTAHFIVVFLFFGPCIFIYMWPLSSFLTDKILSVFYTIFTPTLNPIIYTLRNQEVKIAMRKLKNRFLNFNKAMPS
Protocol: (§1) HEK293 cells were cultivated in Petri dishes (Ø35 mm) as previously described (Benbernou et al. 2007). We grow up HEK293 cells in culture medium containing standard DMEM with 10% heat-inactivated fetal bovine serum, 2 mM L-glutamine, 100 units/ml penicillin, and 100 units/ml streptomycin in a humidified atmosphere (37° C., 5% CO2). After 2-3 days, the transfection process was carried out, whereby the cell culture was 70-80% confluent. The calciumphosphate method was applied to transfect DNA plasmid transiently in HEK293 cells in case of Ca-imaging method.
(§2) Calcium cations and phosphate anions created crystal precipitations coupled with DNA which could invade into the cells through endocytosis. Cells were transiently transfected with plasmid DNA which consists of pCI expression vector and PCR-amplified full-length cDNA of olfactory receptors candidates, and also Gα15, RTP1, Myr-Ric8A, HSC70, and m-Cherry as cofactors. The precipitation could be created after 15-20 min, with dropping the transfection solution on HEK293 cells. Before measuring by Ca-imaging cells were incubated 48-60 hours at 370 C, 5% CO2. Cationic liposome-mediated transfection method was applied to transfect DNA plasmid transiently in HANA3A cells in case of CRE-Luciferase and CRE-SEAP assays.
(§3) Calcium imaging of the transfected HEK293 cells was done by using chambers determinate an inverted microscope (Olympus; IX70) using a 10× objective (CPIanFL N Olympus). Fluorescence emission was determined every 4 s by using a CCD camera (Charge Coupled Device, C9100 Hamamatsu). The capillary tube which was responsible to supply odorants was generated closely above the cells. The columns filled with odorants, DMSO and ATP. Odorants were manually monitored to drop each 4-5 s to transfected cells. Solutions with drop wise form spread on HEK293 cells in 35 mm dishes.
(§4) In experiments, Fura-2 Acetoxymethylester (Fura-2/AM) was applied. The non-polar Fura2/AM is fluorescent but not yet calcium-sensitive. Once diffuses into cell plasma, Fura-2/AM is hydrolyzed to Fura-2 which is calcium-sensitive and functions as Ca2+ chelator. Regardless of the presence of calcium, Fura-2 emits at the wavelength of 510 nm. Once Fura-2 binds to free intracellular Ca2+ in cell plasma, its ratio of excitation at wavelengths of 340 nm and 380 nm is changed and correlated to the amount of intracellular Ca2+. According to this feature, the analysis of 340/380 nm excitation ratio for Fura-2 allows to quantify intracellular calcium levels.
(§5) In preparation for Ca-imaging measurements, transfected HEK293 cells were added 3 it Fura2/AM (3 μM) and incubated 30-45 min at 370 C, 5% CO2. After this step, experiments were carried out in a dark condition (Fura-2 is light-sensitive). After the incubation, medium of cell culture was replaced with 2 ml Ringer's solution.
(§6) Odorants were freshly prepared with DMSO as 1 M stocks solutions. Six mixtures (200 μM each chemical) were applied to cells sequentially (20 s each mixture/30 s Ringer). Those ORs tested with single odorants that had generated a response to odorant mixture group previously. Odorants were prepared in 100-200 μM concentration.
(§7) Ringer's solution was used for washing cells between measuring by two different odorants. Positive response was determined by the timing of the response, the strength of the response (more than twofold higher than the noise amplitude of the baseline), and the shape of the response curve (sharp rise in curve with gradual recovery). […]

[2] = biological target: T2, OR8B4 (Homo sapiens, UniProt Q96RC9); assay: Ca-imaging of OR8B4-transfected HEK293 cells; parameters: key to OR8B4 responded to odorant: ▪: 18 olfactory receptors responded to 32 odorants in related with specific anosmia; conditions: for Response of OR8B4 to odorant, in words: single odorants 200 μM
T2 construct: specific primers, which amplify the complete open reading frame; expressed in transfected cells; host or cells: HEK293
T2 sequence (Q96RC9 1-309): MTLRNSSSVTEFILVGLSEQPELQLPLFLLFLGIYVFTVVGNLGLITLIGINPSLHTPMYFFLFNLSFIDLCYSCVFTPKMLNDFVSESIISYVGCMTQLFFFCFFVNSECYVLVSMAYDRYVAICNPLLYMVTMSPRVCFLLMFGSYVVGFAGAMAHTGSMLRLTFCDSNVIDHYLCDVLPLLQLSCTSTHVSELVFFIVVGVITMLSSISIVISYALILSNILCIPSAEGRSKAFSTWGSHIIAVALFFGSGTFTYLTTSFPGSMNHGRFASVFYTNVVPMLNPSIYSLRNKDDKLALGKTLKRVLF
Protocol: as §1, §2, §3, §4, §5, §6
(§8) Ringer's solution was used for washing cells between measuring by two different odorants. Positive response was determined by the timing of the response, the strength of the response (more than twofold higher than the noise amplitude of the baseline), and the shape of the response curve (sharp rise in curve with gradual recovery). The typical shape of response curves was established by observing responses to repeated stimulation with 200 μM of odorants. After testing with single odorants at 100 μM, stimulating odorants were often retested at 200 μM concentrations. To confirm the result of every receptor that produced a significant response curves, the experiment was repeated for twelve times. Finally, cells were exposed to ATP (0.25 mM) which could activate P2Y receptor channel and induce Ca2+ influx into cells. […]

[3] = biological target: T3, OR8D2 (Homo sapiens, UniProt Q9GZM6); assay: Ca-imaging of OR8D2-transfected HEK293 cells; parameters: key to OR8D2 responded to odorant: ▪: 18 olfactory receptors responded to 32 odorants in related with specific anosmia; conditions: for Number of cell responses, Experiment (OR8D2): odorant 200 μM, approximately 2000 transfected cells in three times of measuring (Table 4, FIG. 5)
T3 construct: specific primers, which amplify the complete open reading frame; expressed in transfected cells; host or cells: HEK293
T3 sequence (Q9GZM6 1-311): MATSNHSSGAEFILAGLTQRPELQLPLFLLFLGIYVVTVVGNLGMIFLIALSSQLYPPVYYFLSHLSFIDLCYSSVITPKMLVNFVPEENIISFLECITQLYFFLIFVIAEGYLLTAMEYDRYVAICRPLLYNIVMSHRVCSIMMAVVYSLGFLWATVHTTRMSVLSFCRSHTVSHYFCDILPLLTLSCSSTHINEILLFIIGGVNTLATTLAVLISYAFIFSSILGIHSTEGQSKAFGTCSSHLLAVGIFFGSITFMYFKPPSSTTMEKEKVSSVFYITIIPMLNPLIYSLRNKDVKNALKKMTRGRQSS
Protocol: as §1, §2, §3, §4, §5, §6, §8

[4] = biological target: T4, OR10A6 (Homo sapiens, UniProt Q8NH74); assay: Ca-imaging of OR10A6-transfected HEK293 cells; parameters: key to OR10A6 responded to odorant: ▪: 18 olfactory receptors responded to 32 odorants in related with specific anosmia
T4 construct: specific primers, which amplify the complete open reading frame; expressed in transfected cells; host or cells: HEK293
T4 sequence (Q8NH74 1-314): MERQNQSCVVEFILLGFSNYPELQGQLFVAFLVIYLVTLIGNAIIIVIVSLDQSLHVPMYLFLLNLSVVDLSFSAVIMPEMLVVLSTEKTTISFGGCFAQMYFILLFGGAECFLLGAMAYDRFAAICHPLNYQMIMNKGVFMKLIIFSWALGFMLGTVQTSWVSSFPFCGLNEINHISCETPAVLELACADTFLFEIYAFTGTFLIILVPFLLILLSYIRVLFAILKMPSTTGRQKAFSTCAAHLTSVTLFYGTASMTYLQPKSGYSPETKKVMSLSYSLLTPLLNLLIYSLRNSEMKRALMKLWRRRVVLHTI
Protocol: as §1, §2, §3, §4, §5, §6, §7

[5] = test system: HEK293 cells transfected with all cofactors and pCI plasmids without ORs; assay: Ca-imaging of control HEK293 cells without OR; conditions: odorant 200 μM, three times of measuring (Table 4, FIG. 5)
Protocol: as §1, §2, §3, §4, §5, §6, §8

[6] = biological target: T5, OR4X2 (Homo sapiens, UniProt Q8NGF9); assay: Ca-imaging of OR4X2-transfected HEK293 cells; parameters: key to OR4X2 responded to odorant: ▪: 18 olfactory receptors responded to 32 odorants in related with specific anosmia; conditions: for Number of cell responses, Experiment (OR4X2): odorant 200 μM, approximately 2000 transfected cells in three times of measuring (Table 4, FIG. 5); for Response of OR4X2 to odorant, in words: single odorants 200 μM
T5 construct: specific primers, which amplify the complete open reading frame; expressed in transfected cells; host or cells: HEK293
T5 sequence (Q8NGF9 1-303): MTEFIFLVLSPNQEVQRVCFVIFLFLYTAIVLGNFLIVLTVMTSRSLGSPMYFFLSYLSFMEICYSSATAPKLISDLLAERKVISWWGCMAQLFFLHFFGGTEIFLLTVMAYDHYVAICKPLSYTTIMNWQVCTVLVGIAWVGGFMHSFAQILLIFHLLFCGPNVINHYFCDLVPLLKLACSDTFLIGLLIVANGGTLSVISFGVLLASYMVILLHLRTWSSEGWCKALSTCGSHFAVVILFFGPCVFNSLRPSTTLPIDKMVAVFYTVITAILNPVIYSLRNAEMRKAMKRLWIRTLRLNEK
Protocol: as §1, §2, §3, §4, §5, §6, §8

[7] = biological target: T6, OR1B1 (Homo sapiens, UniProt Q8NGR6); assay: Ca-imaging of OR1B1-transfected HEK293 cells; parameters: key to OR1B1 responded to odorant: ▪: 18 olfactory receptors responded to 32 odorants in related with specific anosmia; conditions: Ca-imaging
T6 construct: specific primers, which amplify the complete open reading frame; expressed in transfected cells; host or cells: HEK293
T6 sequence (Q8NGR6 1-317): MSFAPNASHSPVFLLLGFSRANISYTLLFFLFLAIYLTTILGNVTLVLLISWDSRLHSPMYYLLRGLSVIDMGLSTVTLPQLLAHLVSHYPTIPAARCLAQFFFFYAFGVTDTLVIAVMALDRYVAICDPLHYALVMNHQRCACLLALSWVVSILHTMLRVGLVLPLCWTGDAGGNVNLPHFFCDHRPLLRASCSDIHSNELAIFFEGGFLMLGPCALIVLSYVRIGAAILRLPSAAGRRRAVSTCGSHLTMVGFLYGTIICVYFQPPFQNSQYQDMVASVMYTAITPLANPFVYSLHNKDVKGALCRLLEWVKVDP
Protocol: as §1, §2, §3, §4, §5, §6, §8

[8] = Ca-imaging, HEK293 cells, individual odorant 200 μM, significant response p<0.05
[9] = HEK293 cells, individual odorant 200 μM, significant response p<0.05

Compound: CC(C)C=O [Isobutyr aldehyde, Isobutyraldehyde]
- OR4K2 responded to odorant [1]: ▪

Compound: CC(C)(CO)Cc1ccccc1 [Muguet alcohol, Muguetalcohol]
- Response of OR8B4 to odorant, in words ([2]; Ca-imaging): activated
- OR8D2 responded to odorant [3, 8]: ▪
- Response of OR8D2 to odorant, in words ([3]; Ca-imaging, single odorants 200 μM): significantly activated; also recorded: detected
- Number of cell responses, Experiment (OR8D2) [3]: 21
- OR10A6 responded to odorant [4, 9]: ▪
- Response of OR10A6 to odorant, in words ([4]; single odorants 200 μM): detected
- Number of cell responses, Control [5]: 0

Compound: COc1ccc(C=O)cc1 [Anisic aldehyde, Anisic Aldehyde]
- Number of cell responses, Experiment (OR4X2) [6]: 14
- OR8B4 responded to odorant [2, 8]: ▪
- Response of OR8B4 to odorant, in words ([2]; Ca-imaging): responded significantly
- Number of cell responses (OR8B4) ([2]; odorant 200 μM, approximately 2000 transfected cells in three times of measuring (FIG. 5)): 14
- Number of cell responses, Control [5]: 0

Compound: NCC(=O)c1ccccc1 [2-aminoacetophenon, 2-Aminoacetophenone]
- OR4X2 responded to odorant [6, 8]: ▪
- Response of OR4X2 to odorant, in words ([6]; Ca-imaging): could be the receptor
- Response of OR4X2 to odorant, in words ([6]; Ca-imaging, listed as 2-aminoacetophenone): responded
- Number of cell responses, Experiment (OR4X2) [6]: 20

Compound: CCCCCCCCO [Octanol]
- Number of cell responses, Experiment (OR8D2) [3]: 9
- Number of cell responses, Control [5]: 0

Compound: Cc1ccc2c(c1)OCC(=O)CO2 [calone, Calone]
- OR1B1 responded to odorant [7, 9]: ▪
- Response of OR1B1 to odorant, in words ([7]; single odorants 200 μM): significantly (P<0.05) activated
- Number of cell responses, Control [5]: 0
